This note sets out measurements from ChEMBL document CHEMBL3588782, “Synthesis, antiribosomal and antibacterial activity of 4-O-glycopyranosyl paromomycin aminoglycoside antibiotics” (Medchemcomm, 2014).

For test [1], the system named is Escherichia coli. The test can be described thus: Antibacterial activity against Escherichia coli isolate 006 by broth microdilution assay. It is filed as functional. In general terms: In broth dilution the organism is exposed to a series of concentrations in liquid medium.
A short description of test [2]: Inhibition of Mycobacterium smegmatis ribosome containing ribosomal RNA A-site A1408G mutant in rabbit reticulocyte lysates assessed as reduction in ribosome-mediated protein synthesis in presence of S-30 extracts by fire fly luciferase synthesis based cell-free translation assay. The arrangement: species or system Mycolicibacterium smegmatis.
Test [3] can be described thus: Inhibition of human ribosome containing eukaryotic ribosomal RNA A-site A1555G mutant in rabbit reticulocyte lysates assessed as reduction in ribosome-mediated protein synthesis in presence of S-30 extracts by fire fly luciferase synthesis based cell-free translation assay.
A short description of test [4]: Inhibition of human ribosome containing eukaryotic ribosomal RNA A-site Cyt14 allele in rabbit reticulocyte lysates assessed as reduction in ribosome-mediated protein synthesis in presence of S-30 extracts by fire fly luciferase synthesis based cell-free translation assay.
Test [5] concerns Escherichia coli. The test can be described thus: Antibacterial activity against Escherichia coli isolate 003 by broth microdilution assay. It is filed as functional.
In test [6] the test system is Escherichia coli. The test can be described thus: Antibacterial activity against Escherichia coli isolate 001 by broth microdilution assay. It is filed as functional.
Test [7] is described as follows: Inhibition of Mycobacterium smegmatis ribosome containing ribosomal RNA A-site G1491C mutant in rabbit reticulocyte lysates assessed as reduction in ribosome-mediated protein synthesis in presence of S-30 extracts by fire fly luciferase synthesis based cell-free translation assay. The arrangement: species or system Mycolicibacterium smegmatis.
Test [8] relates to Staphylococcus aureus. Kind of test: Antibacterial activity against methicillin-resistant Staphylococcus aureus isolate AG 044 by broth microdilution assay. It is filed as functional.
Test [9] relates to Staphylococcus aureus. Kind of test: Antibacterial activity against methicillin-resistant Staphylococcus aureus isolate AG 038 by broth microdilution assay. It is filed as functional.
The nature of test [10]: Inhibition of Mycobacterium smegmatis ribosome containing ribosomal RNA A-site G1491A mutant in rabbit reticulocyte lysates assessed as reduction in ribosome-mediated protein synthesis in presence of S-30 extracts by fire fly luciferase synthesis based cell-free translation assay. On the set-up: species or system Mycolicibacterium smegmatis.
Test [11] deals with Staphylococcus aureus. Kind of test: Antibacterial activity against methicillin-resistant Staphylococcus aureus isolate AG 039 by broth microdilution assay. It is filed as functional.
A further test concerns the target Bacterial 70S ribosome. The test can be described thus: Inhibition of Mycobacterium smegmatis ribosome containing wild type ribosomal RNA A-site in rabbit reticulocyte lysates assessed as reduction in ribosome-mediated protein synthesis in presence of S-30 extracts by fire fly luciferase synthesis based cell-free translation assay. On the set-up: species or system Mycolicibacterium smegmatis.

For test [12], the system named is Staphylococcus aureus. The test can be described thus: Antibacterial activity against methicillin-resistant Staphylococcus aureus isolate AG 042 by broth microdilution assay. It is filed as functional.
In a further test the target is 80S Ribosome. Kind of test: Inhibition of human ribosome containing eukaryotic wild type ribosomal RNA A-site in rabbit reticulocyte lysates assessed as reduction in ribosome-mediated protein synthesis in presence of S-30 extracts by fire fly luciferase synthesis based cell-free translation assay.
The next test relates to Ribosome. Kind of test: Inhibition of ribosome-mediated protein synthesis in rabbit reticulocyte lysates in presence of S-30 extracts by fire fly luciferase synthesis based cell-free translation assay. On the set-up: species or system Oryctolagus cuniculus.
Test [13] relates to Escherichia coli. The test can be described thus: Antibacterial activity against Escherichia coli isolate 055 by broth microdilution assay. The format is functional.

In brackets after ≈: the same amount, converted by molar mass. Where only a bound is given, the exact number is not on record here.

In general, MIC refers to the lowest concentration found to suppress growth. The low end stands for inhibition by little substance, the high end for a need for much substance. In general, IC50 refers to the concentration that inhibits the measured activity by half.

In the case of `CN[C@@H]1[C@@H](O[C@H]2O[C@H](CO)[C@@H](N)[C@H](O)[C@H]2O)O[C@H]2C[C@@H](N)[C@@H](O[C@H]3[C@H](O)[C@@H](O)[C@H](N)C[C@@H]3N)O[C@@H]2[C@@H]1O` [APRAMYCIN], the minimum inhibitory concentration (MIC) is 4 µg/mL (≈ 7.41 µM) with Escherichia coli [1]; 8 µg/mL (≈ 14.8 µM) in the test on Escherichia coli [5]; 16 µg/mL (≈ 29.7 µM) against Escherichia coli [6]; 16 µg/mL (≈ 29.7 µM) against Staphylococcus aureus [8]; 8 µg/mL (≈ 14.8 µM) with Staphylococcus aureus [9]; 8 µg/mL (≈ 14.8 µM) against Staphylococcus aureus [11]. In addition, the MIC in the test with Staphylococcus aureus [12] and against Escherichia coli [13] was 8 µg/mL (≈ 14.8 µM) each time. The IC50 is 128.89 µg/mL in test [2]; 26.06 µg/mL in test [3]; 49.17 µg/mL in [4]; 31.21 µg/mL in test [7]; 5 µg/mL in test [10]; 111 nM on Bacterial 70S ribosome. Further, the IC50 is 108 µM on 80S Ribosome and 23.77 µg/mL in the test on Ribosome.
In the case of `NC[C@@H]1O[C@H](O[C@H]2[C@@H](O)[C@H](O[C@@H]3[C@@H](O)[C@H](N)C[C@H](N)[C@H]3O[C@H]3O[C@H](CO)[C@@H](O[C@H]4O[C@H](CO)[C@H](O)[C@H](O)[C@H]4O)[C@H](O)[C@H]3N)O[C@@H]2CO)[C@H](N)[C@@H](O)[C@@H]1O`, the minimal inhibitory concentration (MIC) against Escherichia coli [1] was 32 µg/mL (≈ 41.1 µM); with Escherichia coli [5] it was above 128 µg/mL; with Escherichia coli [6] it was above 128 µg/mL; in the test on Staphylococcus aureus [8] it was 64 µg/mL (≈ 82.3 µM); in the test on Staphylococcus aureus [9], 64 µg/mL (≈ 82.3 µM); in the test with Staphylococcus aureus [11], 128 µg/mL (≈ 165 µM). The MIC is 64 µg/mL (≈ 82.3 µM) in the test on Staphylococcus aureus [12] and above 128 µg/mL against Escherichia coli [13]. Besides, the half-maximal inhibitory concentration (IC50) is 12.01 µg/mL in test [2]; 14.95 µg/mL in test [3]; 35.63 µg/mL in test [4]; 118.67 µg/mL in test [7]; 18.68 µg/mL in test [10]; 707 nM at Bacterial 70S ribosome. In addition, the 50% inhibitory concentration (IC50) at 80S Ribosome is 2.87 µM; with Ribosome, 23.75 µg/mL.
Consider `NC[C@@H]1O[C@H](O[C@H]2[C@@H](O)[C@H](O[C@@H]3[C@@H](O)[C@H](N)C[C@H](N)[C@H]3O[C@H]3O[C@H](CO)[C@@H](OCCCc4ccccc4)[C@H](O)[C@H]3N)O[C@@H]2CO)[C@H](N)[C@@H](O)[C@@H]1O`, for which the MIC with Escherichia coli [1] amounted to 8 µg/mL (≈ 10.9 µM); against Escherichia coli [5], 8 µg/mL (≈ 10.9 µM); with Escherichia coli [6], 16 µg/mL (≈ 21.8 µM); in the test with Staphylococcus aureus [8], 4 µg/mL (≈ 5.45 µM); in the test on Staphylococcus aureus [9], 2 µg/mL (≈ 2.73 µM); in the test with Staphylococcus aureus [11], 8 µg/mL (≈ 10.9 µM). Moreover, the MIC came out at 4 µg/mL (≈ 5.45 µM) against Staphylococcus aureus [12] and 16 µg/mL (≈ 21.8 µM) in the test with Escherichia coli [13]. For the same compound, the IC50 in [2] was 14.52 µg/mL; in [3] it was 105.68 µg/mL; in [4] it was 268.57 µg/mL; in [7] it was 210.73 µg/mL; in test [10], 51.26 µg/mL; on Bacterial 70S ribosome it was 273 nM. Moreover, the IC50 on 80S Ribosome is 67.9 µM.
In the case of `NC[C@@H]1O[C@H](O[C@H]2[C@@H](O)[C@H](O[C@@H]3[C@@H](O)[C@H](N)C[C@H](N)[C@H]3O[C@H]3O[C@@H]4COC(CCc5ccccc5)O[C@H]4[C@H](O)[C@H]3N)O[C@@H]2CO)[C@H](N)[C@@H](O)[C@@H]1O` (some centres not stated), the MIC against Escherichia coli [1] is 16 µg/mL (≈ 21.9 µM); against Escherichia coli [5], 32 µg/mL (≈ 43.7 µM); in the test on Escherichia coli [6], 32 µg/mL (≈ 43.7 µM); in the test on Staphylococcus aureus [8] it was 16 µg/mL (≈ 21.9 µM); in the test with Staphylococcus aureus [9], 4 µg/mL (≈ 5.47 µM); against Staphylococcus aureus [11] it was 8 µg/mL (≈ 10.9 µM). In addition, the MIC was found to be 4 µg/mL (≈ 5.47 µM) in the test on Staphylococcus aureus [12] and 32 µg/mL (≈ 43.7 µM) against Escherichia coli [13]. Further, the IC50 in test [2] was 3.81 µg/mL; in test [3], 126.88 µg/mL; in test [4] it was 183.86 µg/mL; in [7], 124.07 µg/mL; in test [10] it was 43.01 µg/mL; on Bacterial 70S ribosome, 137 nM. For the same compound, the half-maximal inhibitory concentration (IC50) at 80S Ribosome is 452 µM.
